Test results from patent US11377442B2, “Small molecule agonists and antagonists of NR2F6 activity” (ZANDER THERAPEUTICS, INC., priority 2016, dated 2022).

Tests used:
Type in all cases: cell-based
ERα [1] = target: T1, ERα (Homo sapiens, UniProt P03372); assay: Counterscreening, Firefly signal with ERα transient transfection (Firefly_ERa); conditions: Table 15; 10 uM
T1 construct: expressed in transfected cells
T1 sequence (P03372 1-595): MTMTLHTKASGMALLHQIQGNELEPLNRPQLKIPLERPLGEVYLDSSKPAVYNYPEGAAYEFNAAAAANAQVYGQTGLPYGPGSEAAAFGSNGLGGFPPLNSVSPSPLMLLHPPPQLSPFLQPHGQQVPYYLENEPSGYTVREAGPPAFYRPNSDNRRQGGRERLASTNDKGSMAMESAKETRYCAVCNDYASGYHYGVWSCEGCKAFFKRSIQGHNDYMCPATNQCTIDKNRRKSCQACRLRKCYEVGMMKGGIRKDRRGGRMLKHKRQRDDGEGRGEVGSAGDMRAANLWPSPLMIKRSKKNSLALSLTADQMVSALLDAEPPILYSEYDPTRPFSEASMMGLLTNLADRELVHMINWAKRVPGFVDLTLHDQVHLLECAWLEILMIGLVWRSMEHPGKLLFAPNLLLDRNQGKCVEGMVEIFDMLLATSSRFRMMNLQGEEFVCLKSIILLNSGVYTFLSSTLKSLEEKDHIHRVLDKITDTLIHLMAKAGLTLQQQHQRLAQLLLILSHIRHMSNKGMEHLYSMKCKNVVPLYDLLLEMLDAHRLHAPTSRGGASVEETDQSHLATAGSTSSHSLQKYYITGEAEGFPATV
Experimental: The methodology for screening candidate compounds as NR2F6 agonists was as follows: For primary screening, hit criteria was ACT %>DMSO control+5*SD (DSO control) at 10 μM, or any compound with S/B>2. For rescreening, hit criteria was ACT %>DMSO control+3*SD (DSO control) in each replicate at 10 μM. For counterscreening, hit criteria was mean ACT<DMSO control+3*SD (DMSO control) with ERα transient transfection in duplicate at 10 μM.

ERα [2] = target: T1, ERα; assay: as above; conditions: Table 15
NR2F6 = target: T2, NR2F6 (Homo sapiens, UniProt P10588); assay: NR2F6 agonist screening, Firefly signal cmpd/DMSO; conditions: Table 15
T2 construct: expressed in transfected cells; also transient transfection
T2 sequence (P10588 1-404): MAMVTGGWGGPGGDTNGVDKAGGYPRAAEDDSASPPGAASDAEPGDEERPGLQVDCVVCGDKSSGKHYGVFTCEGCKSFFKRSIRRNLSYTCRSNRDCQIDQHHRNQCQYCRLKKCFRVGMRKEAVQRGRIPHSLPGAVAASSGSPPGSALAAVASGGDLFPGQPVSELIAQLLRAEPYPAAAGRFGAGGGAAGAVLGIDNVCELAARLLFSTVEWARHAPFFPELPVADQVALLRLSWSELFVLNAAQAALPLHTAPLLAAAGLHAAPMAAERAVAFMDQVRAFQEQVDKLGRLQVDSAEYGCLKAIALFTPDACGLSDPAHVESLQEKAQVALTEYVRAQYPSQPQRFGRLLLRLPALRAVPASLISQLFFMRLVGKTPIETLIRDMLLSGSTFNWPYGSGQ

Renilla_ERa = assay: Renilla signal in ERα counterscreen (Renilla_ERa); conditions: Table 15, read-out: Renilla ERalpha transient, cmpd/DMSO (mean)
Renilla = Renilla signal in NR2F6 agonist screening, cmpd/DMSO; conditions: Renilla, Table 15, read-out: Renilla F4, cmpd/DMSO (mean)

| SMILES | Firefly ERalpha transient, cmpd/DMSO (mean) (ERα [1]) | Firefly ERalpha transient, cmpd/DMSO (mean) (ERα [2]; 2 uM) | Firefly ERalpha transient, cmpd/DMSO (mean) (ERα [2]; 40 uM) | Firefly F4, cmpd/DMSO (mean) (NR2F6; 2 uM) | Firefly F4, cmpd/DMSO (mean) (NR2F6; 10 uM) | Firefly F4, cmpd/DMSO (mean) (NR2F6; 40 uM) | fold induction at 2 µM (Renilla_ERa) | fold induction at 10 µM (Renilla_ERa) | fold induction at 40 µM (Renilla_ERa) | fold induction at 2 µM (Renilla) | fold induction at 10 µM (Renilla) | fold induction at 40 µM (Renilla) |
| --- | --- | --- | --- | --- | --- | --- | --- | --- | --- | --- | --- | --- |
| CCOC(=O)c1cnc2c(C)cc(C)cc2c1N1CCC(N(C)C)CC1 [Compound Z68] | 1.5 | 1.1 | 0.7 | 1.5 | 1.1 | 1.2 | 1.1 | 0.9 | 0.6 | 0.9 | 1 | 0.6 |
| CCOC(=O)c1cnc2c(C)cc(C)cc2c1NCCCO [Compound Z70] | 1.1 | 0.9 | 1.5 | 1.1 | 1.0 | 1.0 | 1.1 | 1 | 1.2 | 0.8 | 1.3 | 1.3 |
| CCOC(=O)c1cnc2c(C)cc(C)cc2c1NCCCOC [Compound Z71] | 1.0 | 1.4 | 0.4 | 0.8 | 1.0 | 0.8 | 1 | 1 | 0.5 | 1.1 | 0.9 | 0.4 |
| CCOC(=O)c1cnc2c(C)cc(C)cc2c1NCc1ccc(Cl)cc1 [Compound Z75] | 1.9 | 1.1 | 0.9 | 0.9 | 1.2 | 0.8 | 1 | 0.9 | 0.7 | 1.1 | 1 | 0.8 |
| CCOC(=O)c1cnc2c(C)cc(C)cc2c1N1CCC(C)CC1 [Compound Z76] | 1.9 | 1.3 | 0.7 | 0.8 | 1.8 | 0.8 | 1.1 | 0.8 | 0.4 | 1 | 0.8 | 0.5 |
| CCOC(=O)c1cnc2c(C)cc(C)cc2c1N1CCC(O)CC1 [Compound Z78] | 2.4 | 1.5 | 1.1 | 1.4 | 1.5 | 1.6 | 1 | 0.9 | 0.6 | 1.1 | 1 | 0.8 |
